Measured values: article PMC4996985, “Sequence-Based Screening for Rare Enzymes: New Insights into the World of AMDases Reveal a Conserved Motif and 58 Novel Enzymes Clustering in Eight Distinct Families” (Frontiers in Microbiology, 2016)

Molecular target: T1, AmdP (Polymorphum gilvum, UniProt F2IXG8)
T1 construct: gene SL003B_3169; full length, 744 bp codon-adapted synthetic gene, pET-21a NdeI/XhoI, C-terminal His6 tag kept, E. coli BL21, Ni-NTA purified
T1 sequence (F2IXG8 1-247): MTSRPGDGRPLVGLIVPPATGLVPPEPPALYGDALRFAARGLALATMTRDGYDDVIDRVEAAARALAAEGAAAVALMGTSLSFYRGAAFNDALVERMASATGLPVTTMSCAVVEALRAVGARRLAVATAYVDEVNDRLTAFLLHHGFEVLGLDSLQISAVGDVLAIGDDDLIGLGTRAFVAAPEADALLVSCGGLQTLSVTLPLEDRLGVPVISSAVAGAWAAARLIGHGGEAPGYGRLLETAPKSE
Experiment: chiral GC of product after derivatisation
Assay type: biochemical
Settings: 10 mM substrate, 50 mM Tris pH 7.5; substrate contained <4% racemic flurbiprofen

CC(C(=O)O)(C(=O)O)c1ccc(-c2ccccc2)c(F)c1 [2a, flurbiprofen malonate]
chiral GC of product after derivatisation: selectivity of all three AMDases was analyzed with aryl malonic acid derivates
